Laboratory results reported in patent US20230277525A1, “CONJUGATE OF FUNCTIONAL DRUG AND TOLL-LIKE RECEPTOR 7 OR 8 AGONIST OF WHICH ACTIVE SITE IS TEMPORARILY INACTIVATED AND USE THEREOF” (priority 2020, published 2023).

Assays:
IL-6 [1] = assay: blood inflammatory cytokine (IL-6) level after intravenous injection, AAC-001 study; format: in vivo; conditions: mouse, blood collected at 0, 1, 2 and 4 hours, ELISA, FIG. 18
Description: To confirm the effect of the antibody-resiquimod complex (AAC-001) synthesized in the same manner as in Example 14.1 on the secretion of inflammatory cytokine in blood, after intravenously injecting the AAC-001 complex or resiquimod into a mouse, blood samples were collected at 0, 1, 2, and 4 hours. The collected blood sample was centrifuged at 10,000×g for 20 minutes to separate serum, and the concentration of IL-6, which is a representative inflammatory cytokine, present in serum was measured using the Invitrogen mouse IL-6 ELISA kit.

IL-6 [2] = assay: blood inflammatory cytokine (IL-6) level after intravenous injection, AAC-002 study; format: in vivo; conditions: mouse, two hours after intravenous injection, ELISA; FIG. 20
Description: To confirm the effect of the antibody-resiquimod complex (AAC-002) synthesized in the same manner as in Example 15.1 on the secretion of an inflammatory cytokine in blood, two hours after the AAC-002 complex (conjugated TLR7/8a-Blocked active site) was intravenously injected into a mouse, blood samples were collected. The collected blood sample was centrifuged at 10,000×g for 20 minutes to separate serum, and the concentration of IL-6, which is a representative inflammatory cytokine, present in serum was measured using the Invitrogen mouse IL-6 ELISA kit. As controls, a phosphate-buffered saline-injected group (Blank), a resiquimod only-injected group (Bare TLR7/8a-Uncomplexd), and a group into which an antibody-resiquimod complex in which the antibody binds to a site other than the active site, is injected (conjugated TLR7/8a-Live active site) were used for comparison.

[3] = size of complex in aqueous solution by spectroscopy; format: physicochemical; conditions: in an aqueous solution; FIG. 21
Description: To synthesize a complex of a protein antigen, which is a type of sulfhydryl group-containing protein-based drug, and resiquimod, having a bond cleaved by cathepsin-B, first, resiquimod to which a linker binds to its active site was synthesized. In further detail, resiquimod (10 mg) and Mal-Val-Cit-PAB-PNP (47.2 mg) were added to 2 mL of N,N-dimethylformamide (DMF), and then dissolved. Afterward, N,N-diisopropylethylamine (DIPEA; 6.7 μL) and 1-hydroxybenzotriazole hydrate (1-HOBt; 315 μg) were added. Then, a mixture was prepared by stirring at room temperature for 16 hours. The OVA protein antigen (10 mg) was added to the prepared mixture and reacted, thereby preparing a complex, and then the resulting complex was purified by thin-layer chromatography, thereby preparing an OVA protein antigen-resiquimod complex having a bond cleaved by cathepsin-B. Then, the prepared complex was subjected to spectroscopy to confirm its size.

CCOCc1nc2c(N)nc3ccccc3c2n1CC(C)(C)O [resiquimod]
inflammatory cytokine (IL-6) level in serum (IL-6 [1]): promotes the secretion of inflammatory cytokines and induces a cytokine storm | inflammatory cytokine (IL-6) level in serum (IL-6 [2]): remarkably increasing an inflammatory cytokine level in blood

B1: complex of the OVA protein antigen and resiquimod, having a bond cleaved by cathepsin-B: OVA protein antigen linked to resiquimod active site via Mal-Val-Cit-PAB linker cleaved by cathepsin-B (conjugate, UniProt P01012 2-386, looked up)
Ovalbumin: GSIGAASMEFCFDVFKELKVHHANENIFYCPIAIMSALAMVYLGAKDSTRTQINKVVRFDKLPGFGDSIEAQCGTSVNVHSSLRDILNQITKPNDVYSFSLASRLYAEERYPILPEYLQCVKELYRGGLEPINFQTAADQARELINSWVESQTNGIIRNVLQPSSVDSQTAMVLVNAIVFKGLWEKAFKDEDTQAMPFRVTEQESKPVQMMYQIGLFRVASMASEKMKILELPFASGTMSMLVLLPDEVSGLEQLESIINFEKLTEWTSSNVMEERKIKVYLPRMKMEEKYNLTSVLMAMGITDVFSSSANLSGISSAESLKISQAVHAAHAEINEAGREVVGSAEAGVDAASVSEEFRADHPFLFCIKHIATNAVLFFGRCVSP
modifications: resiquimod via Mal-Val-Cit-PAB linker
nanoparticle size [3]: approximately 99.7 nm
